Laboratory results reported in PMC7461020 (The EMBO Journal, 2020).
“Also recorded” adds a separate entry of the source.

Assays:
[1] = system: SARS-CoV-2; assay type: cell-based
[2] = system: SARS-CoV-2; assay type: cell-based; remark: listed apart in the source
[3] = system: Vero cells

## CCN(CCO)CCCC(C)Nc1ccnc2cc(Cl)ccc12 (centres unmarked) [Hydroxychloroquine, reference compound]
[1]
  Rescue of CPE: ~ 90%
[2]
  Reduction of viral titre: 10 fold

## CCC(CC)COC(=O)[C@H](C)N[P@](=O)(OC[C@H]1O[C@@](C#N)(c2ccc3c(N)ncnn23)[C@H](O)[C@@H]1O)Oc1ccccc1 [Remdesivir, reference compound]
[1]
  Reversal of SARS-CoV-2 induced CPE: ~ 90%

## CC(c1cccc2ccccc12)N1CCC(C(=O)NCc2cccc(F)c2)CC1 (stereo not drawn) [rac3k]
[1]
  CPE reduction at lower concentrations: diminished
  Effect on SARS-CoV-2-induced CPE: significantly rescued infected cells; also recorded: reduced SARS‐CoV‐2‐induced CPE
  Remaining cell death: around 20%
[3]
  Toxicity on Vero cells: no toxicity
[3]; African green monkey
  Cellular toxicity: ~25%
